From US4996235A, “3,4-diphenylbutanamines” (Eli Lilly and Company, priority 1987, dated 1991)
Where a name gives a salt, the structure may show the parent alone.

Experiments:
[1] = test system: 5HT uptake (rat cerebral cortex synaptosomes); assay: Synaptosomal uptake of 3H-serotonin (3H-5HT), inhibition in vitro; assay type: biochemical, Male Sprague-Dawley rats; details: rat cortical synaptosomes, 37° C., 5 min, 50 nM 3H-5HT
Method: (§1) This general procedure is set forth by Wong et al., in Drug Development Research 6:397-403 (1985).
(§2) Male Sprague-Dawley rats (110-150 g) from Harlan Industries (Cumberland, Ind.) were fed a Purina Chow ad libitum for at least 3 days before being used in the studies. Rats were killed by decapitation. Whole brains were removed and dissected. Cerebral cortex was homogenized in 9 volumes of a medium containing 0.32 M sucrose and 10 mM glucose. Crude synaptosomal preparations were isolated after differential centrifugation at 1,000 g for 10 min. and 17,000 g for 28 min. The final pellets were suspended in the same medium and kept in ice until use within the same day.
(§3) Synaptosomal uptake of ^3 H-serotonin(^3 H-5-hydroxytryptaine, ^3 H-5HT) and ^14 C-l-norepinephrine (^14 C-NE) was determined as follows. Cortical synaptosomes (equivalent to 1 mg of protein) were incubated at 37° C. for 5 min in 1 ml of Krebs-bicarbonate medium containing also 10 mM glucose, 0.1 mM iproniazid, 1 mM ascorbic acid, 0.17 mM EDTA, 50 nM ^3 H-5HT and 100 nM ^14 C-NE. The reaction mixture was immediately diluted with 2 ml of ice-chilled Krebs-bicarbonate buffer and filtered under vacuum with a cell harvester (Brandel, Gaithersburg, Md.). […] Radioactivity was measured by a liquid scintillation spectrophotometer. […]

[2] = test system: norepinephrine uptake (rat cerebral cortex synaptosomes); assay: Synaptosomal uptake of 14C-l-norepinephrine (14C-NE), inhibition in vitro; assay type: biochemical, Male Sprague-Dawley rats; details: rat cortical synaptosomes, 37° C., 5 min, 100 nM 14C-NE
Method: as §1, §2, §3

## CNCCC(Cc1ccccc1C)c1ccccc1 (stereo not shown) [Example 2, N-Methyl-3-phenyl-4-(2-methylphenyl)-butanaminium tosylate]
[1]
  IC50: 330 nM
[2]
  IC50: 100 nM

## CNCCC(Cc1ccc(C(F)(F)F)cc1)c1ccccc1 (stereo not shown) [Example 1, N-Methyl-3-phenyl-4-(4-trifluoromethylphenyl)-butanaminium chloride]
[1]
  IC50: 250 nM
[2]
  IC50: 7600 nM
